Experimental data as given in patent US20140357713A1, “ANTIMICROBIAL COMPOUNDS AND METHODS OF USE” (NexMed Holdings, Inc., priority 2012, published 2014).
Counter-ions that a name gives are not always drawn. Like-named read-outs stand apart in the source and are kept apart here.

Columns and labels:
Assay in all cases: MIC assay with different strains, Example 35
Type in all cases: cell-based
[1] = test system: Streptococcus pyogenes (ATCC 19615)
In short: (§1)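 Each strain was adjusted to 10^7–10^8 CFU/mL, diluted 1:200 in Mueller Hinton broth, and tested per M202.R02. The MIC was the lowest concentration without turbidity after incubation, with growth confirmed by streaking turbid tubes onto agar.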

[2] = test system: Staphylococcus hominis (ATCC 27844)
In short: as §1

[3] = test system: Klebsiella oxytoca (ATCC 43165)
In short: as §1

[4] = test system: Enterococcus faecalis (ATCC 19433)
In short: as §1

[5] = test system: Staphylococcus aureus (MRSA) (ATCC 33592)
In short: as §1

[6] = test system: Staphylococcus haemolyticus (ATCC 29970)
In short: as §1

[7] = test system: Enterococcus faecium (ATCC 19434)
In short: as §1

CCCCCCCCCCCCOC(=O)C(C)N(C)C (stereo not shown) [Nex-05, Dodecyl 2-(dimethylamino)propanoate hydrochloride]
MIC ([1]; Example 35): 0.313% | Growth/no growth ([1]; Sample Concentration 0.039%): Growth | Growth/no growth ([1]; Sample Concentration 0.078%): Growth | Growth/no growth ([1]; Sample Concentration 0.156%): Growth | MIC ([2]; Example 35): 0.625% | Growth/no growth ([2]; Sample Concentration 0.039%): Growth | Growth/no growth ([2]; Sample Concentration 0.078%): Growth | Growth/no growth ([2]; Sample Concentration 0.156%): Growth | Growth/no growth ([2]; Sample Concentration 0.313%): Growth | MIC ([3]; Example 35): 1.25% | Growth/no growth ([3]; Sample Concentration 0.039%): Growth | Growth/no growth ([3]; Sample Concentration 0.078%): Growth | Growth/no growth ([3]; Sample Concentration 0.156%): Growth | Growth/no growth ([3]; Sample Concentration 0.313%): Growth | Growth/no growth ([3]; Sample Concentration 0.625%): Growth | MIC ([4]; Example 35): 1.25% | Growth/no growth ([4]; Sample Concentration 0.039%): Growth | Growth/no growth ([4]; Sample Concentration 0.078%): Growth | Growth/no growth ([4]; Sample Concentration 0.156%): Growth | Growth/no growth ([4]; Sample Concentration 0.313%): Growth | Growth/no growth ([4]; Sample Concentration 0.625%): Growth | MIC ([5]; Example 35): 0.625% | Growth/no growth ([5]; Sample Concentration 0.039%): Growth | Growth/no growth ([5]; Sample Concentration 0.078%): Growth | Growth/no growth ([5]; Sample Concentration 0.156%): Growth | Growth/no growth ([5]; Sample Concentration 0.313%): Growth | MIC ([6]; Example 35): 0.313% | Growth/no growth ([6]; Sample Concentration 0.039%): Growth | Growth/no growth ([6]; Sample Concentration 0.078%): Growth | Growth/no growth ([6]; Sample Concentration 0.156%): Growth

CCCCCCCCCCCCOC(=O)C(C)NC.Cl (stereo not shown) [Nex-59, Dodecyl 2-(methylamino)propanoate hydrochloride]
MIC ([1]; Example 35): ≦0.01% | Growth/no growth ([1]; Sample Concentration 0.01%): No | Growth/no growth ([1]; Sample Concentration 0.02%): No | Growth/no growth ([1]; Sample Concentration 0.04%): No | Growth/no growth ([1]; Sample Concentration 0.08%): No | Growth/no growth ([1]; Sample Concentration 0.16%): No | Growth/no growth ([1]; Sample Concentration 0.32%): No | Growth/no growth ([1]; Sample Concentration 0.63%): No | Growth/no growth ([1]; Sample Concentration 1.25%): No | Growth/no growth ([1]; Sample Concentration 2.5%): No | MIC ([1]; Streptococcus pyogenes, ATCC19615, Table 19 summary, read-out: MIC): 100 µg/mL | MIC ([2]; Example 35): 0.02% | Growth/no growth ([2]; Sample Concentration 0.01%): Growth | Growth/no growth ([2]; Sample Concentration 0.02%): No | Growth/no growth ([2]; Sample Concentration 0.04%): No | Growth/no growth ([2]; Sample Concentration 0.08%): No | Growth/no growth ([2]; Sample Concentration 0.16%): No | Growth/no growth ([2]; Sample Concentration 0.32%): No | Growth/no growth ([2]; Sample Concentration 0.63%): No | Growth/no growth ([2]; Sample Concentration 1.25%): No | Growth/no growth ([2]; Sample Concentration 2.5%): No | MIC ([2]; Staphylococcus hominis, ATCC27844, Table 19 summary, read-out: MIC): 200 µg/mL | MIC ([3]; Example 35): 0.63% | MIC ([3]; Klebsiella oxytoca, ATCC 43165 / ATCC 43615, Table 19 summary, strain printed ATCC 43615, read-out: MIC): 6300 µg/mL | Growth/no growth ([3]; Sample Concentration 0.01%): Growth | Growth/no growth ([3]; Sample Concentration 0.02%): Growth | Growth/no growth ([3]; Sample Concentration 0.04%): Growth | Growth/no growth ([3]; Sample Concentration 0.08%): Growth | Growth/no growth ([3]; Sample Concentration 0.16%): Growth | Growth/no growth ([3]; Sample Concentration 0.32%): Growth | Growth/no growth ([3]; Sample Concentration 0.63%): No | Growth/no growth ([3]; Sample Concentration 1.25%): No | Growth/no growth ([3]; Sample Concentration 2.5%): No | MIC ([4]; Enterococcus faecalis, ATCC19433, Table 19 summary, read-out: MIC): ≥ 100 µg/mL | MIC ([4]; Example 35): ≦0.01% | Growth/no growth ([4]; Sample Concentration 0.01%): No | Growth/no growth ([4]; Sample Concentration 0.02%): No | Growth/no growth ([4]; Sample Concentration 0.04%): No | Growth/no growth ([4]; Sample Concentration 0.08%): No | Growth/no growth ([4]; Sample Concentration 0.16%): No | Growth/no growth ([4]; Sample Concentration 0.32%): No | Growth/no growth ([4]; Sample Concentration 0.63%): No | Growth/no growth ([4]; Sample Concentration 1.25%): No | Growth/no growth ([4]; Sample Concentration 2.5%): No | MIC ([7]; Enterococcus faecium, ATCC19434, Table 19 summary, read-out: MIC): 400 µg/mL | MIC ([7]; Example 35): 0.04% | Growth/no growth ([7]; Sample Concentration 0.01%): Growth | Growth/no growth ([7]; Sample Concentration 0.02%): Growth | MIC ([5]; Example 35): 0.02% | Growth/no growth ([5]; Sample Concentration 0.01%): Growth | Growth/no growth ([5]; Sample Concentration 0.02%): No | Growth/no growth ([5]; Sample Concentration 0.04%): No | Growth/no growth ([5]; Sample Concentration 0.08%): No | Growth/no growth ([5]; Sample Concentration 0.16%): No | Growth/no growth ([5]; Sample Concentration 0.32%): No | Growth/no growth ([5]; Sample Concentration 0.63%): No | Growth/no growth ([5]; Sample Concentration 1.25%): No | Growth/no growth ([5]; Sample Concentration 2.5%): No | MIC ([5]; Staphylococcus aureus, Table 19 summary, read-out: MIC): 200 µg/mL | MIC ([6]; Example 35): 0.02% | Growth/no growth ([6]; Sample Concentration 0.01%): Growth | Growth/no growth ([6]; Sample Concentration 0.02%): No | Growth/no growth ([6]; Sample Concentration 0.04%): No | Growth/no growth ([6]; Sample Concentration 0.08%): No | Growth/no growth ([6]; Sample Concentration 0.16%): No | Growth/no growth ([6]; Sample Concentration 0.32%): No | Growth/no growth ([6]; Sample Concentration 0.63%): No | Growth/no growth ([6]; Sample Concentration 1.25%): No | Growth/no growth ([6]; Sample Concentration 2.5%): No | MIC ([6]; Staphylococcus haemolyticus, ATCC29970, Table 19 summary, read-out: MIC): 200 µg/mL
